System: HeLa cells
Assay: Fluorescence assay of HeLa cells incubated with lipid conjugates (microtiter plate reader)
Format: cell-based
Conditions: preformed complexes, washed with PBS
Experimental: General Procedure for Incubation of Cells with Compounds: Cells were cultured in DMEM/RPMI medium supplemented with 10% fetal bovine serum and 1% penicillin/streptomycin. Cells were suspended in phosphate buffered saline (PBS), incubated with an ethanolic solution of lipid conjugates for 1-2 h at 4 or 37° C. to give a final concentration in each well of 0.01-100 μM in a total volume of 100 μL (10% EtOH). After the incubation period, cells were pelleted by centrifugation and washed (2×) and resuspended in 100 μL PBS and analyzed.
ATP Depletion: Cells were pretreated with 4 mM NaN3/0.8 mM NaF in 100 μL PBS for 30 m at 37° C. The cells were then washed with PBS (2×100 μL) and incubated with 100 μM ethanolic solutions of lipids for 2 h (total volume 100 μL, 10% EtOH). Analysis was carried out as described previously.
Incubation under Hypertonic Conditions: Cells were pretreated with 0.3 M sucrose for 30 min at 37° C. in PBS, and were then incubated with lipid solutions. Analysis was carried out as described previously.
Fluorescence Assay: After the incubation period, HeLa cells in PBS were analyzed using an Infinite™ 200 series microtiterplate reader (Tecan Systems, Inc.). All experiments were carried out in 96 well plates with six replicates. The plates were pretreated with 1% BSA for 12 h at 4° C. to minimize non-specific binding.

In the case of “AF: avidin conjugated to fluorescein isothiocyanate [reference compound]”, the “delivery of AF into the cell (microscopy or fluorescence counting)” value is reported as “minimally fluorescent”.
